Measurements: patent publication US20220169680A1 (priority 2018, published 2022)

Legend:
Format in all cases: cell-based
A549 cells [1] = tested on: A549 cells
A549 cells [2] = tested on: A549 cells; remark: listed apart in the source
A549 cells [3] = tested on: A549 cells; remark: listed apart in the source

DRFFFKCFFRRFKFGLKRGPST [Jilin-2004(H5N1)-M2-44-65 mut6]
ability to carry small RNA into cells compared with the transfection reagent RNAiMax group, qPCR (A549 cells [1]): stronger than the transfection reagent RNAiMax group

DRFFFKCFYRRLK [Jilin-2004(H5N1)-M2-44-56 mut9]
cell-penetrating peptide function compared with the parent polypeptide (A549 cells [2]): enhanced compared to the parent polypeptide

DRFFFKCIFRRLKFGLKRGPST [Jilin-2004(H5N1)-M2-44-65 mut5]
ability to carry small RNA into cells compared with the transfection reagent RNAiMax group, qPCR (A549 cells [1]): stronger than the transfection reagent RNAiMax group

DRFFFKCIYRRLKYGLKRGPST [Jilin-2004(H5N1)-M2-44-65 mut1]
ability to carry small RNA into cells compared with the transfection reagent RNAiMax group, qPCR (A549 cells [1]): stronger than the transfection reagent RNAiMax group

DRFFFKCIYRRLKYGLKRRPST [Jilin-2004(H5N1)-M2-44-65 mut2]
ability to carry small RNA into cells compared with the transfection reagent RNAiMax group, qPCR (A549 cells [1]): stronger than the transfection reagent RNAiMax group

DRFFFKRIFRRLKFRLKRRPST [Jilin-2004(H5N1)-M2-44-65 mut11]
ability to carry small RNA into cells compared with the transfection reagent RNAiMax group, qPCR (A549 cells [1]): stronger than the transfection reagent RNAiMax group

DRFFFKRIFRRLKYRLKRRPST [Jilin-2004(H5N1)-M2-44-65 mut10]
cell-penetrating peptide function compared with the parent polypeptide (A549 cells [2]): stronger than that of the parent Jilin-2004(H5N1)-M2-44-65 polypeptide

DRKRRKCKYRRKKYGRKR [Jilin-2004(H5N1)-M2-44-61 mut14]
cell-penetrating peptide function compared with the parent polypeptide (A549 cells [2]): stronger than that of the parent Jilin-2004(H5N1)-M2-44-61 polypeptide
ability to carry small RNA into cells compared with the transfection reagent RNAiMax group, qPCR (A549 cells [1]): stronger than the transfection reagent RNAiMax group

DRLFFICIYRRLKYGLKR [Jilin-2004(H5N1)-M2-44-61 mut6]
ability to carry small RNA into cells compared with the transfection reagent RNAiMax group, qPCR (A549 cells [1]): stronger than the transfection reagent RNAiMax group

DRLFFKCIYRRLKYGLII [Jilin-2004(H5N1)-M2-44-61 mut16]
ability to carry small RNA into cells compared with the transfection reagent RNAiMax group, qPCR (A549 cells [1]): stronger than the transfection reagent RNAiMax group

DRLFFKCIYRRLKYGRKR [Jilin-2004(H5N1)-M2-44-61 mut13]
cell-penetrating peptide function compared with the parent polypeptide (A549 cells [2]): stronger than that of the parent Jilin-2004(H5N1)-M2-44-61 polypeptide

DRLFFKCIYRRRKRGLKR [Jilin-2004(H5N1)-M2-44-61 mut12]
ability to carry small RNA into cells compared with the transfection reagent RNAiMax group, qPCR (A549 cells [1]): stronger than the transfection reagent RNAiMax group

DRLFFKIIYRRLKYGLKR [Jilin-2004(H5N1)-M2-44-61 mut8]
ability to carry small RNA into cells compared with the transfection reagent RNAiMax group, qPCR (A549 cells [1]): stronger than the transfection reagent RNAiMax group

DRLFFRRIYRRLKYGLKRGPST [Jilin-2004(H5N1)-M2-44-65 mut23]
ability to carry small RNA into cells compared with the transfection reagent RNAiMax group, qPCR (A549 cells [1]): stronger than the transfection reagent RNAiMax group

DRLFFRRIYRRLRYRLRRRPST [Jilin-2004(H5N1)-M2-44-65 mut24]
cell-penetrating peptide function compared with the parent polypeptide (A549 cells [2]): stronger than that of the parent Jilin-2004(H5N1)-M2-44-65 polypeptide

DRRFFKCIYRRLKYGLKR [Jilin-2004(H5N1)-M2-44-61 mut4]
ability to carry small RNA into cells compared with the transfection reagent RNAiMax group, qPCR (A549 cells [1]): stronger than the transfection reagent RNAiMax group

DRRRRKCRRRRRKYGRKR [Jilin-2004(H5N1)-M2-44-61 mut10]
ability to carry small RNA into cells compared with the transfection reagent RNAiMax group, qPCR (A549 cells [1]): stronger than the transfection reagent RNAiMax group

ERGLQRRRFVQNALN [NC, reference compound]
cell entry at all time points (A549 cells [2]): no entry of polypeptides was observed

GPSTEGVPESMREEYRQE [FITC-Jilin-2004(H5N1)-M2-62-79]
cell entry signal / cell entry properties (A549 cells [2]): did not show cell entry properties

KRGPSTAGVPESMREEYRQEQQN [A/HongKong/97/98(H5N1)-M2-N-M-AH(60-82)]
cell entry of rhodamine-labeled polypeptide (A549 cells [3]): did not enter the cells

KRGPSTEGVPESMREEYREEQQN [Caledonia/20/1999(H1N1)-M2-N-M-AH(60-82)]
cell entry of rhodamine-labeled polypeptide (A549 cells [3]): did not enter the cells

KRGPSTEGVPESMREEYRQEQQS [Jilin-2004(H5N1)-M2-60-82]
ability to carry small RNA (PGY-sRNA-26) into cells, qPCR (A549 cells [1]): Only the polypeptide Jilin-2004(H5N1)-M2-45-62 had the ability to carry small RNA into the cells

KYGLKRGPSTEGVPESMR [FITC-Jilin-2004(H5N1)-M2-56-73]
cell entry signal / cell entry properties (A549 cells [2]): did not show cell entry properties

LKRGPSTEGVPESMREEY [FITC-Jilin-2004(H5N1)-M2-59-76]
cell entry signal / cell entry properties (A549 cells [2]): did not show cell entry properties

MSLLTEVETPTRNGWECRCSDSSD [Jilin-2004(H5N1)-M2-1-24]
cell entry signal / cell entry properties (A549 cells [2]): no cell entry signal was detected
ability to carry small RNA (PGY-sRNA-26) into cells, qPCR (A549 cells [1]): Only the polypeptide Jilin-2004(H5N1)-M2-45-62 had the ability to carry small RNA into the cells

PLVVAASIIGILHLILWIL [Jilin-2004(H5N1)-M2-25-43]
cell entry signal / cell entry properties (A549 cells [2]): no cell entry signal was detected
ability to carry small RNA (PGY-sRNA-26) into cells, qPCR (A549 cells [1]): Only the polypeptide Jilin-2004(H5N1)-M2-45-62 had the ability to carry small RNA into the cells

RAFFKCIYRRLKYGLKRG [Jilin-2004(H5N1)-M2-45-62 mut46]
ability to carry small RNA into cells compared with the transfection reagent RNAiMax group, qPCR (A549 cells [1]): stronger than the transfection reagent RNAiMax group

RFFFKCFYRRLKYGLKRG [Jilin-2004(H5N1)-M2-45-62 mut8]
ability to carry small RNA into cells compared with the transfection reagent RNAiMax group, qPCR (A549 cells [1]): stronger than the transfection reagent RNAiMax group

RFFFRRFFRRFRFRFRRR [Jilin-2004(H5N1)-M2-45-62 mut13]
cell-penetrating peptide function compared with the parent polypeptide (confocal imaging) (A549 cells [3]): stronger than that of the parent Jilin-2004(H5N1)-M2-45-62 polypeptide

RLFFKCAYRRLKYGLKRG [Jilin-2004(H5N1)-M2-45-62 mut51]
ability to carry small RNA into cells compared with the transfection reagent RNAiMax group, qPCR (A549 cells [1]): stronger than the transfection reagent RNAiMax group
cell-penetrating peptide function compared with the parent polypeptide (confocal imaging) (A549 cells [3]): stronger than that of the parent Jilin-2004(H5N1)-M2-45-62 polypeptide

RLFFKCIKRRLKYGLKRG [Jilin-2004(H5N1)-M2-45-62 mut52]
ability to carry small RNA into cells compared with the transfection reagent RNAiMax group, qPCR (A549 cells [1]): stronger than the transfection reagent RNAiMax group

RLFFKCIYRRAKYGLKRG [Jilin-2004(H5N1)-M2-45-62 mut55]
ability to carry small RNA into cells compared with the transfection reagent RNAiMax group, qPCR (A549 cells [1]): stronger than the transfection reagent RNAiMax group

RLFFKCIYRRLKYGAKRG [Jilin-2004(H5N1)-M2-45-62 mut59]
ability to carry small RNA into cells compared with the transfection reagent RNAiMax group, qPCR (A549 cells [1]): stronger than the transfection reagent RNAiMax group

RLFFKCIYRRLKYGLKRG [A/HongKong/97/98(H5N1)-M2-N-M-AH(45-62)]
cell entry of rhodamine-labeled polypeptide (A549 cells [3]): could all enter A549 cells

RLFFKCIYRRLKYGLKTG [Jilin-2004(H5N1)-M2-45-62 mut61]
ability to carry small RNA into cells compared with the transfection reagent RNAiMax group, qPCR (A549 cells [1]): stronger than the transfection reagent RNAiMax group
cell-penetrating peptide function compared with the parent polypeptide (confocal imaging) (A549 cells [3]): stronger than that of the parent Jilin-2004(H5N1)-M2-45-62 polypeptide

RLFFKCIYRRLTYGLKRG [Jilin-2004(H5N1)-M2-45-62 mut56]
ability to carry small RNA into cells compared with the transfection reagent RNAiMax group, qPCR (A549 cells [1]): stronger than the transfection reagent RNAiMax group

RLFFKCIYSRLKYGLKRG [Jilin-2004(H5N1)-M2-45-62 mut53]
ability to carry small RNA into cells compared with the transfection reagent RNAiMax group, qPCR (A549 cells [1]): stronger than the transfection reagent RNAiMax group

RLFFKIIYRRLKYGLKRG [Jilin-2004(H5N1)-M2-45-62 mut50]
cell-penetrating peptide function compared with the parent polypeptide (confocal imaging) (A549 cells [3]): stronger than that of the parent Jilin-2004(H5N1)-M2-45-62 polypeptide

RLFFRCIYRRLKYGLKRG [Jilin-2004(H5N1)-M2-45-62 mut1]
ability to carry small RNA into cells compared with the transfection reagent RNAiMax group, qPCR (A549 cells [1]): stronger than the transfection reagent RNAiMax group

RLFFRRIYRRLKYGLKRG [Jilin-2004(H5N1)-M2-45-62 mut2]
cell-penetrating peptide function compared with the parent polypeptide (confocal imaging) (A549 cells [3]): stronger than that of the parent Jilin-2004(H5N1)-M2-45-62 polypeptide

RLFFRRIYRRLRYGLKRG [Jilin-2004(H5N1)-M2-45-62 mut3]
cell-penetrating peptide function compared with the parent polypeptide (confocal imaging) (A549 cells [3]): stronger than that of the parent Jilin-2004(H5N1)-M2-45-62 polypeptide

RLFFRRIYRRLRYRLKRG [Jilin-2004(H5N1)-M2-45-62 mut4]
cell-penetrating peptide function compared with the parent polypeptide (confocal imaging) (A549 cells [3]): stronger than that of the parent Jilin-2004(H5N1)-M2-45-62 polypeptide

RLFFRRIYRRLRYRLRRG [Jilin-2004(H5N1)-M2-45-62 mut5]
ability to carry small RNA into cells compared with the transfection reagent RNAiMax group, qPCR (A549 cells [1]): stronger than the transfection reagent RNAiMax group
cell-penetrating peptide function compared with the parent polypeptide (confocal imaging) (A549 cells [3]): stronger than that of the parent Jilin-2004(H5N1)-M2-45-62 polypeptide

RLFFRRIYRRLRYRLRRR [Jilin-2004(H5N1)-M2-45-62 mut6]
cell-penetrating peptide function compared with the parent polypeptide (confocal imaging) (A549 cells [3]): stronger than that of the parent Jilin-2004(H5N1)-M2-45-62 polypeptide

RLFIKCIYRRLKYGLKRG [Jilin-2004(H5N1)-M2-45-62 mut48]
ability to carry small RNA into cells compared with the transfection reagent RNAiMax group, qPCR (A549 cells [1]): stronger than the transfection reagent RNAiMax group
cell-penetrating peptide function compared with the parent polypeptide (confocal imaging) (A549 cells [3]): stronger than that of the parent Jilin-2004(H5N1)-M2-45-62 polypeptide

RLFSKSIYR1FKHGLKRG [Caledonia/20/1999(H1N1)-M2-N-M-AH(45-62)]
cell entry of rhodamine-labeled polypeptide (A549 cells [3]): could all enter A549 cells

RLIFKCIYRRLKYGLKRG [Jilin-2004(H5N1)-M2-45-62 mut47]
ability to carry small RNA into cells compared with the transfection reagent RNAiMax group, qPCR (A549 cells [1]): stronger than the transfection reagent RNAiMax group

RRFFFKCFFRRFKFGLKRGPST [Jilin-2004(H5N1)-M2-44-65 mut7]
ability to carry small RNA into cells compared with the transfection reagent RNAiMax group, qPCR (A549 cells [1]): stronger than the transfection reagent RNAiMax group

RRLFFKCIYRRLKYGLKR [Jilin-2004(H5N1)-M2-44-61 mut1]
ability to carry small RNA into cells compared with the transfection reagent RNAiMax group, qPCR (A549 cells [1]): stronger than the transfection reagent RNAiMax group

RRLFFKCIYRRLKYGLKRGPST [Jilin-2004(H5N1)-M2-44-65 mut15]
ability to carry small RNA into cells compared with the transfection reagent RNAiMax group, qPCR (A549 cells [1]): stronger than the transfection reagent RNAiMax group

RRLKYGLKRGPSTEGVPE [FITC-Jilin-2004(H5N1)-M2-53-70]
cell entry signal / cell entry properties (A549 cells [2]): did not show cell entry properties

TEGVPESMREEYRQEQQS [FITC-Jilin-2004(H5N1)-M2-65-82]
cell entry signal / cell entry properties (A549 cells [2]): did not show cell entry properties
